Measurements reported in ChEMBL document CHEMBL1201862, “PubChem BioAssay data set” (2004).
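Cells were grown in 96-well plates and exposed to each compound for 48 hours at five concentrations; endpoints were interpolated linearly between bracketing concentrations, or set to the highest concentration if not reached. GI50: concentration for 50% inhibition of growth.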 Calls of active or inactive are those of the source. Rule as the data show it: active = GI50 up to about 1.1 µM and inactive = higher.

Key:
Experiment in all cases: inhibition of tumour cell growth, NCI panel, 48 h
[1] = system: SK-MEL-2
[2] = system: 786-0
[3] = system: OVCAR-8
[4] = system: SW-620
[5] = system: K562
[6] = system: SF-539
[7] = system: MOLT-4
[8] = system: OVCAR-3
[9] = system: UACC-62
[10] = system: HL-60
[11] = system: SR
[12] = system: HOP-62
[13] = system: M14
[14] = system: ACHN
[15] = system: HCC 2998

Measured: GI50

CC(C)(C)c1cc(C(=O)O)c(C(c2ccccc2)c2ccccc2C(=O)O)c(C(=O)O)c1 (configuration not stated)
inactive: [1] > 100 µM | [2] > 100 µM | [3] > 100 µM | [4] > 100 µM | [5] > 100 µM | [6] > 100 µM | [7] > 100 µM | [8] > 100 µM | [9] > 100 µM | [10] > 100 µM | [11] > 100 µM | [12] > 100 µM | [13] > 100 µM | [14] 20.7 µM

CCOC(=O)C(=O)/C=C(\C)Nc1c(NC2OCC(OC(C)=O)C(OC(C)=O)C2OC(C)=O)nc(SC)[nH]c1=O (configuration not stated)
inactive: [1] > 100 µM | [2] > 100 µM | [3] > 100 µM | [4] > 100 µM | [5] > 100 µM | [15] > 100 µM | [7] > 100 µM | [8] > 100 µM | [9] > 100 µM | [10] > 10 µM | [11] > 100 µM | [12] > 100 µM | [13] > 100 µM | [14] > 100 µM

O=C(/C=C\c1cccc2ccccc12)c1ccc(F)cc1
inactive: [2] 18.1 µM | [3] 14.8 µM | [4] 7.52 µM | [5] 11.1 µM | [15] 19.5 µM | [6] 21.5 µM | [7] 16 µM | [8] 17.1 µM | [9] 13.9 µM | [10] 20.6 µM | [12] 69.8 µM | [13] 16.2 µM | [14] 17 µM

O=C(O)CCN(CCCN(CCC(=O)O)CCC(=O)O)CCC(=O)O
inactive: [1] > 100 µM | [2] > 100 µM | [3] > 100 µM | [4] > 100 µM | [5] > 100 µM | [15] > 100 µM | [6] > 100 µM | [7] > 100 µM | [8] > 100 µM | [9] > 100 µM | [10] > 100 µM | [12] > 100 µM | [13] > 100 µM | [14] > 100 µM

OCC1OC(NO)C(O)C(O)C1O (configuration not stated)
inactive: [2] > 100 µM | [3] > 100 µM | [4] > 100 µM | [5] > 100 µM | [15] > 100 µM | [6] > 100 µM | [7] > 100 µM | [8] > 100 µM | [9] > 100 µM | [10] > 100 µM | [11] > 100 µM | [12] > 100 µM | [13] > 100 µM | [14] > 100 µM

COC(=O)C(=O)C1(CCC(C)=O)c2ccccc2-c2c(C)ccc(C)c21 (configuration not stated)
inactive: [1] 40.6 µM | [2] 64 µM | [3] 34.4 µM | [4] 48.4 µM | [5] 30.1 µM | [15] 87.5 µM | [7] 23.1 µM | [8] 32 µM | [9] 7.53 µM | [10] 10.3 µM | [11] 19.2 µM | [12] 53 µM | [13] 46.8 µM | [14] 46.7 µM

O=C(O)C(C(=O)C(=O)C(C(=O)O)c1ccc(Cl)cc1)c1ccc(Cl)cc1 (configuration not stated)
inactive: [2] 4.2 µM | [3] 2.25 µM | [4] 3.98 µM | [5] 2.57 µM | [15] 4.02 µM | [6] 2.15 µM | [7] 1.72 µM | [8] 2.9 µM | [9] 1.87 µM | [10] 2.18 µM | [11] 1.91 µM | [12] 5.22 µM | [13] 4.45 µM | [14] 3.64 µM

Cc1ccc2[nH]c(Sc3c([N+](=O)[O-])ncn3C)nc2c1
inactive: [2] 27.8 µM | [3] 14.4 µM | [4] 25.3 µM | [15] 15.7 µM | [6] 18.1 µM | [7] 13.9 µM | [8] 17.5 µM | [9] 19 µM | [11] 12.3 µM | [12] > 100 µM | [13] 17.6 µM | [14] 33 µM

CCCCCCCCCCCCCC(=O)CC(=O)c1c(O)cccc1O
inactive: [1] 19.2 µM | [2] 34.9 µM | [3] 44.3 µM | [4] 23.6 µM | [5] 21 µM | [15] 38.2 µM | [6] 49.5 µM | [7] 21.5 µM | [8] 18.9 µM | [9] 47.3 µM | [10] 20.8 µM | [12] 34.4 µM | [13] 44.7 µM | [14] 28.2 µM

CC(=O)c1ccc(NC(=O)COC(=O)c2cccc3c(=O)c4ccccc4[nH]c23)cc1
inactive: [2] 37.8 µM | [3] 9.2 µM | [4] 52.8 µM | [5] > 100 µM | [15] > 100 µM | [6] 8.91 µM | [7] > 100 µM | [8] 27.2 µM | [9] 24.9 µM | [10] > 100 µM | [11] > 100 µM | [12] 31.5 µM | [13] 31.4 µM | [14] 27.8 µM

O=C(Cn1cc(I)c(C(=O)NCC(O)CO)n1)NCC(O)CO (configuration not stated)
inactive: [1] > 100 µM | [2] > 100 µM | [3] > 100 µM | [4] > 100 µM | [5] > 100 µM | [15] > 100 µM | [6] > 100 µM | [7] > 100 µM | [8] > 100 µM | [9] > 100 µM | [10] > 100 µM | [12] > 100 µM | [13] > 100 µM | [14] > 100 µM

CCOC(=O)c1cc(/C=C/C(C)=C/C(=O)OC)n(C)c1C
inactive: [2] > 100 µM | [3] > 100 µM | [4] > 100 µM | [5] 25.8 µM | [15] 92.5 µM | [6] 77.8 µM | [7] 41.7 µM | [8] 58.3 µM | [9] 50.6 µM | [10] 23.9 µM | [12] > 100 µM | [13] > 100 µM | [14] 45.2 µM

CC(C)N(C(=O)C12C3C4C1C1C2C3C41C(O)C(C)(C)C)C(C)C (configuration not stated)
inactive: [2] > 50 µM | [3] > 50 µM | [4] > 50 µM | [5] > 50 µM | [15] > 50 µM | [6] > 50 µM | [7] > 50 µM | [8] > 50 µM | [9] > 50 µM | [10] > 50 µM | [11] > 50 µM | [12] > 50 µM | [13] > 50 µM | [14] > 50 µM

COC(=O)C1CC2C=CC=CC(=O)C2(C)C1 (configuration not stated)
inactive: [1] 59.6 µM | [2] 36.6 µM | [3] 41.1 µM | [4] 27.2 µM | [5] 30.7 µM | [6] > 100 µM | [7] 25.6 µM | [8] > 100 µM | [9] 39.9 µM | [10] 25.8 µM | [11] 27.8 µM | [12] > 100 µM | [13] 30.5 µM | [14] 59.6 µM
